The record followed here is paper PMC6443933, “Antagonizing Retinoic Acid-Related-Orphan Receptor Gamma Activity Blocks the T Helper 17/Interleukin-17 Pathway Leading to Attenuated Pro-inflammatory Human Keratinocyte and Skin Responses” (Frontiers in Immunology, 2019).

The subject of test [1] is memory human CD4+ T-cells. Description: Th17 polarization of memory CD4+ T-cells, IL-17A ELISA. It counts as cell-based. To be noted: T-cell, 168 h, Th17 differentiation 7 days, read-out: IC50, IL-17A secretion. How it is done:
(§1) Total, naive and memory CD4^+ T cells were isolated from Peripheral blood mononuclear cells (PBMCs) from healthy volunteers by density gradient centrifugation using Ficoll Paque (GE). Total, naive or memory CD4^+ T-cells were prepared by immunomagnetic separation using the respective CD4^+ T-cell enrichment kits resulting in untouched highly purified subsets (EasySep™, Stem Cell). Purity was assessed by flow cytometry and was between 95 and 98% for the total CD4^+ T-cells. The purity of naive (CD45RA^+CD45RO^−) and memory (CD45RA^−CD45RO^+) CD4^+T-cells ranged between 95 and 98%, respectively. For T-cell stimulation experiments, cells were treated as previously published ([44]). Briefly, T-cells were stimulated with plate-bound monoclonal antibodies against CD3 (1 μg/ml, clone OKT-3, BioXcell) and CD28 (1 μg/ml, clone CD28.2, BioLegend). For Th17 polarization assays, IL-6 (20 ng/ml), TGF-β1 (5 ng/ml), IL-1β (10 ng/ml), and IL-23 (10 ng/ml) were added. For Th1 polarization assays, IL-12 (10 ng/ml) and anti-IL-4 antibody (5 μg/ml), for Th2 polarizations, IL-4 (10 ng/ml) and anti-IFN-γ antibody (5 μg/ml) were added. For Th0 polarization assays, cells were only stimulated with CD3 and CD28 antibodies. […] Cytokine concentrations were quantified by ELISA according to the manufacturer's instructions (eBioscience or BioLegend).

The subject of the next test is RORγt expression. As to the kind of experiment: RORγt expression in cultures (data not shown). Format: cell-based. The note with it: preliminary evidence.
The subject of the next test is RORγt. Description: Binding of transcription/co-factors to RORγt or RORE oligonucleotides after treatment (data not shown). It counts as cell-based.
For a further test, the system named is naive human CD4+ T-cells. As to the kind of experiment: Th17 polarization of naive CD4+ T-cells, IL-17A ELISA. It counts as cell-based. To be noted: T-cell, 168 h, Th17 differentiation 7 days, read-out: IC50, IL-17A secretion. The method, then:
as §1
For orientation: ELISA stands for enzyme-linked immunosorbent assay.

A further test concerns the target T1, human RORγt-LBD (Homo sapiens, UniProt P51449).
T1 construct: human RORγt-LBD (264-518, produced at Novartis); made in house
T1 sequence (P51449 264-518): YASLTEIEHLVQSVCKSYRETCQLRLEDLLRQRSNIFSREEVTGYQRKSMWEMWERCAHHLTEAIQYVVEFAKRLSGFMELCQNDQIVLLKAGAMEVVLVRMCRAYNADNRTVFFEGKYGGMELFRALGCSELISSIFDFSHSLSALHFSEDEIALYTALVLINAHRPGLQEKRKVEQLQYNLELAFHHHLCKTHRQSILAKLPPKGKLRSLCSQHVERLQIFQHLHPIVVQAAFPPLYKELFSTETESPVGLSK
As to the kind of experiment: TR-FRET RIP140 co-activator peptide displacement from RORγt-LBD. Format: biochemical. To be noted: 1 h incubation, read-out: IC50, disruption of RIP140 peptide interaction with RORγt-LBD. How it is done: Compound-mediated disruption of the interaction between the human RORγt-LBD (264-518, produced at Novartis) with a biotinylated RIP140 derived co-activator peptide (biotinyl-NH-Ahx-[…]-CONH2, Thermo Scientific) was quantified by TR-FRET as previously described ([34], [44]). Briefly, Cpd A was incubated with a mixture consisting of 6 nM His6-tagged RORγt-LBD, 90 nM biotinylated RIP140 co-activator peptide, 0.45 nM Cy5-labeled streptavidin (GE Healthcare), 1.5 nM Europium-labeled anti-His6 antibody (Perkin Elmer). After 1 h of incubation, the emissions were measured at 615 and 665 nm. Concentration-response curves were generated and IC50 values were calculated using the GraphPad Prism software package.
(In general: TR-FRET usually uses a lanthanide donor and a delayed reading to cut background.)

A further test has as its system T2, RORα.
T2 construct: RORα and RORβ we performed LBD-GAL4 reporter gene assays; expressed in transfected cells; host or cells: Jurkat cells stably carrying pGL4.35
As to the kind of experiment: RORα LBD-GAL4 reporter gene assay in Jurkat cells. Format: cell-based, human. How it is done: (§2) Selectivity against other ROR family members was assessed in a GAL4 reporter gene assay as previously described ([44]). Briefly, Jurkat cells stably expressing the pGL4.35 plasmid (Promega) containing nine GAL4 binding sites inducing the transcription of the luciferase reporter gene were transiently transfected with the human RORα, RORβ or RORγt-LBD/GAL4-DBD constructs. After 24 h post-transfection, cells were incubated with Cpd A for an additional 24 h before luciferase activity was determined using an EnVision Multilabel Plate Reader (Perkin Elmer).

The next test deals with T3, RORβ.
T3 construct: RORα and RORβ we performed LBD-GAL4 reporter gene assays; expressed in transfected cells; host or cells: Jurkat cells stably carrying pGL4.35
Description: RORβ LBD-GAL4 reporter gene assay in Jurkat cells. It counts as cell-based, human. How it is done:
as §2

In a further test the test system is total CD4+ T-cells. Description: Th0, Th1, Th2 polarization, signature cytokine ELISA. Format: cell-based, human. The method, then: (§3) Total, naive and memory CD4^+ T cells were isolated from Peripheral blood mononuclear cells (PBMCs) from healthy volunteers by density gradient centrifugation using Ficoll Paque (GE). Total, naive or memory CD4^+ T-cells were prepared by immunomagnetic separation using the respective CD4^+ T-cell enrichment kits resulting in untouched highly purified subsets (EasySep™, Stem Cell). Purity was assessed by flow cytometry and was between 95 and 98% for the total CD4^+ T-cells. The purity of naive (CD45RA^+CD45RO^−) and memory (CD45RA^−CD45RO^+) CD4^+T-cells ranged between 95 and 98%, respectively. For T-cell stimulation experiments, cells were treated as previously published ([44]). Briefly, T-cells were stimulated with plate-bound monoclonal antibodies against CD3 (1 μg/ml, clone OKT-3, BioXcell) and CD28 (1 μg/ml, clone CD28.2, BioLegend). For Th17 polarization assays, IL-6 (20 ng/ml), TGF-β1 (5 ng/ml), IL-1β (10 ng/ml), and IL-23 (10 ng/ml) were added. For Th1 polarization assays, IL-12 (10 ng/ml) and anti-IL-4 antibody (5 μg/ml), for Th2 polarizations, IL-4 (10 ng/ml) and anti-IFN-γ antibody (5 μg/ml) were added. For Th0 polarization assays, cells were only stimulated with CD3 and CD28 antibodies. Supernatants were collected after 3 or 7 days of incubation for total or naive/memory CD4^+ T-cell polarizations, respectively. Cytokine concentrations were quantified by ELISA according to the manufacturer's instructions (eBioscience or BioLegend).

Test [2] has as its system human Th17 cells (total CD4+ T-cells). Description: RORγt target gene expression in Th17 cells by qRT-PCR. Format: cell-based. To be noted: Th17 polarization 72 h, concentration-dependent. The method, then: as §3
Total RNA from human Th17 cells (6 × 10^5 cells), RORγt-RORE HUT78 cells (4 × 10^5 cells) and HaCaT cells (6 × 10^4 cells) was extracted using RNeasy kit including a DNAse I digestion step according to the manufacturer‘s protocol (Qiagen). Frozen skin biopsies (8 mm punches) were resuspended in RLT buffer (Qiagen) containing 1% β-mercaptoethanol and homogenized using a Precellys-Cryolys device (Bertin Instruments) according to the manufacturer's instructions. cDNAs were prepared with the High Capacity cDNA Reverse Transcription Kit (Applied Biosystems). Quantitative RT-PCR analysis was performed using a TaqManViiA7 (Applied Biosystems). All runs were accompanied by the internal control gene human β-glucoronidase (Gus) (431088E). The samples were run in triplicate or in hexaplicate and normalized to Gus using the ΔΔCt method to provide arbitrary units representing relative expression levels. The following Taqman probes were used for RT-PCR (Thermo Scientific): RORC (Hs01076112_m1), IL17A (Hs00936345_m1), IL22 (Hs01574154_m1), IL26 (Hs00218189_m1), IL23R (Hs00332759_m1), CCR6 (Hs00218189_m1), NFKBIZ (Hs00355476_m), DEFB4A (Hs00823638_m1), IL36G (Hs00219742_m1), and CCL20 (Hs00355476_m1).
A general note: In qPCR the cycle at which signal appears reflects the starting amount.

Test [3] concerns HUT78 T-cells stably expressing full-length eGFP-RORγt. Description: IL-17A / IL-2 production by RORγt transduced HUT78 T-cell line. Format: cell-based, human.

In general, IC50 refers to the midpoint of a concentration-inhibition curve. With `Cc1ccc(C(=O)Nc2cn3ccnc3c(CN3CCN(c4noc(C(C)(C)C)n4)[C@@H](C)C3)c2C)cn1` [Cpd A, (S)-N-(8-((4-(5-(tert-butyl)-1,2,4-oxadiazol-3-yl)-3-methylpiperazin-1-yl)methyl)-7-methylimidazo[1,2-a]pyridin-6-yl)-6-methylnicotinamide], in test [1], the IC50 came to 27 nM. Moreover, the “RORγt expression in cultures” value in the test with RORγt expression is on record as “did not modify”. Further, the “binding of TAZ, steroid receptor co-activators, p300, HIF-1α, Runx to RORγt or RORE oligonucleotides” value in the test with RORγt was “remained intact”. Moreover, in the test on naive human CD4+ T-cells, the IC50 stood at 15 nM. Further, the IC50 at human RORγt-LBD came out at 5.7 nM. Also, the “activity toward RORα (LBD-GAL4 reporter)” value in the test with RORα was “lacked activity”. For the same compound, the “activity toward RORβ (LBD-GAL4 reporter)” value with RORβ was “lacked activity”. Besides, the “Th2 signature cytokine production (IL-13)” value in the test on total CD4+ T-cells (IL-4 and anti-IFN-γ antibody) was “did not have any impact”. Also, the “Th1 signature cytokine production (IFN-γ)” value with total CD4+ T-cells (IL-12 and anti-IL-4 antibody) is reported as “did not have any impact”. Further, the “Th0 signature cytokine production (IL-2)” value with total CD4+ T-cells (anti-CD3 plus anti-CD28 only) is “did not have any impact”. For the same compound, in test [2], the CCR6 gene expression entry is “significantly attenuated”, the IL17A gene expression entry is on record as “significantly attenuated”, the IL17F gene expression result is on record as “significantly attenuated” and the IL22 gene expression result is recorded as “significantly attenuated”. Further, in test [2], the IL23R gene expression result is “significantly attenuated” and the IL26 gene expression entry is given as “significantly attenuated”. In test [3] (Homo sapiens, PMA plus anti-CD3, 48 h, ELISA), the half-inhibitory concentration (IC50) is 27 nM. Besides, the IL-2 cytokine production result in [3] (PMA plus anti-CD3, 48 h, ELISA) was “not affected”. For the same compound, in [3] (concentration-dependent), the “attenuation of IL-17A production” value is “complete attenuation”.
